# US9567336B2, “Conjugated TLR7 and/or TLR8 and TLR2 agonists” (CAYLA, priority 2012, dated 2017)
# Columns and labels:
# B16-F1 cells = experiment: B16-F1 allograft tumor mouse model, intra-tumoral injections; type: in vivo, C57BL/6 mice; settings: 3 intra-tumoral injections
# Procedure: To investigate whether administering in vivo a therapeutically effective amount of a composition concerned by the invention into a tumor environment affects tumor growth, C57BL/6 mice (Janvier S.A.S.) were shaved (on their backs) and were injected subcutaneously with approximately 50 μl (5×10^5) of viable B16-F1 cells (ATCC, CRL-6323) under anesthesia, using 7 mice per group. Once the tumor volume reached about 5 mm in diameter, around day 7 after tumor cells were grafted, the mice were divided into 2 groups. A first group (control) received intra-tumoral injections of vehicle (Glucose 5% ethanol 8% that is often used to facilitate drug solubilization and so enhance delivery), for a total of 3 injections. All animal work was carried out at the animal facility at the Institut de Pharmacologie et de Biologie Structurale (IPBS) in Toulouse, in accordance with institutional guidelines. […] By day 51 following the tumor cell graft, 60% of mice in the CL401 conjugated TLR7-TLR2 small molecule treated group were still alive. In contrast, by day 26, there was no survival of mice from the control group of vehicle treated. Tumor growth was monitored and measured with calipers after day 5 of grafting tumor cells into mice and then every 2 days after. […] Tumor volume in mm^3 was determined according to the formula V=W^2×L/2, where L=length (mm) and W=width (mm)
# human TLR7 = target: T1, human TLR7 (Homo sapiens, UniProt Q9NYK1); experiment: HEK-Blue hTLR7 NF-κB/AP-1 SEAP reporter cell assay; type: cell-based; settings: HEK-Blue hTLR7 reporter cells, 10 μg/mL to 10 pg/ml, 24 hours, OD at 655 nm; FIGS. 1A, 1B
# T1 construct: host or cells: HEK293 (HEK-Blue hTLR7)
# T1 sequence (Q9NYK1 27-1049): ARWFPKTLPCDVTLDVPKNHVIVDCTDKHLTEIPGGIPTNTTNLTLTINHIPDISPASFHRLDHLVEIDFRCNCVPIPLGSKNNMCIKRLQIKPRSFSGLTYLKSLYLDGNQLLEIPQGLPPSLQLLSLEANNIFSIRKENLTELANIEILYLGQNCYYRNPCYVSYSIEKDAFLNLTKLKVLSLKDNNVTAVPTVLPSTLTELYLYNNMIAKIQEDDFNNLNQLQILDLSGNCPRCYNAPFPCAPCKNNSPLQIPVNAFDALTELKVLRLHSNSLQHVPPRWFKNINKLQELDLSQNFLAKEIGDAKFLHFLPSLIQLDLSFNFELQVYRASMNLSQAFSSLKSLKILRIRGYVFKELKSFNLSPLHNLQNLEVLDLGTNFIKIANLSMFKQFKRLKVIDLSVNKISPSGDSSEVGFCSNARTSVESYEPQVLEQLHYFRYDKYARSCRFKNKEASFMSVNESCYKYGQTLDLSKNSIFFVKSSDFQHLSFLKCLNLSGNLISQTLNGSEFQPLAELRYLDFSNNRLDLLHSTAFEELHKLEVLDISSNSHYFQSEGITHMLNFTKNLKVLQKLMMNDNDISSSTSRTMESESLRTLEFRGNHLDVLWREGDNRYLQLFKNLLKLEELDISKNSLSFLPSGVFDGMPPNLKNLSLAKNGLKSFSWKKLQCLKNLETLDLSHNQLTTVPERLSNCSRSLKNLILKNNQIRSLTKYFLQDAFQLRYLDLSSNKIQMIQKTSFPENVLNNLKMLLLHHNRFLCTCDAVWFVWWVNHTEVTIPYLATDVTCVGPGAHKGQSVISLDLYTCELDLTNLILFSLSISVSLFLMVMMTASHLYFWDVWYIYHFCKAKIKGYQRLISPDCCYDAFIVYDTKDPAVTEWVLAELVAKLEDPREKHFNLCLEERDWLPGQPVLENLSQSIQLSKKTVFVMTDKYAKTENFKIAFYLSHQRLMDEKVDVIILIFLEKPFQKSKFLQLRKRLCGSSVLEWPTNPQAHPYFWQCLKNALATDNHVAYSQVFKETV
# Procedure: Some conjugated compounds of the invention were tested for their ability to activate TLR7 and TLR2 receptor signaling. Cell-based assays were carried out using TLR7 and TLR2 reporter cell lines (InvivoGen). The reporter cell lines are engineered HEK293 cells, a human embryonic kidney cell line (ATCC, CRL-1573) that stably express either murine TLR7 (HEK-Blue™ mTLR7) or human TLR7 (HEK-Blue™ hTLR7) or murine TLR2 (HEK-Blue™ mTLR2) or human TLR2 (HEK-Blue™ hTLR2) with an NF-κB-inducible secreted embryonic alkaline phosphatase (SEAP) as the reporter gene. The SEAP reporter gene is placed under the control of the NF-κB and AP-inducible promoter. Stimulation with the corresponding TLR ligand activates NF-κB and AP-1, which induces the production of SEAP. Detection of SEAP is measured following culturing cells in HEK-Blue™ Detection media (InvivoGen). HEK-Blue™ Detection contains a SEAP substrate, which upon hydrolysis by SEAP produces a colorimetric change allowing for detection of SEAP as the protein is secreted. […] These assays were carried out using RAW-Blue™ Cells (InvivoGen), derived from RAW 264.7 mouse leukemic monocytic macrophage cell line (ATCC, CRL 2278) stably overexpressing a NF-κB/AP-1 inducible SEAP reporter constructs.
# To perform the assay, cells were seeded on 96 well microliter plates at 50,000 or 100,000 cells per well for HEK-Blue™ Cells and RAW-Blue™ Cells respectively, and cultured at 37° C. in the presence of the conjugated compounds. The conjugated compounds were prepared as follows: First, stock solutions of the small molecule conjugated compounds of the invention were prepared in ethanol or water to a concentration of 10 mg/ml. A working dilution of the conjugated TLR7-TLR2 small molecules was made up in water and added to cells at a final range of concentrations from 10 μg/mL to 10 pg/ml. The working dilutions of the conjugated TLR7-TLR2 small molecules as the stated concentrations were directly added to the reporter cell lines and incubated at 37° C. for 24 hours. After 24 hours of incubation, the effect on reporter gene activity was determined by reading the OD at 655 nm using iMark™ Microplate Reader (BIO-RAD).
# The conjugated compounds were tested alone for their ability to specifically activate TLR7 and TLR2, alongside the known TLR7 activators R848 or CL264 (InvivoGen) and the TLR2 agonists Pam2CSK4 or Pam3CSK4 (InvivoGen). The specificity of the TLR activity was determined by use of reporter cell lines to the other TLRs (data not shown). […] The molecules show a tendency to activate mouse TLR7 with greater sensitivity than human TLR7. […] Furthermore, dose-dependent responses of the conjugated compounds indicate significant TLR activities of TLR7 and TLR2 compared to the corresponding controls.
structure (smiles),measurement,setting,value
"CCCCCCCCCCCCCCCC(=O)OCC(CSC[C@H](N)C(=O)Nc1ccc(Cn2c(O)nc3c(N)nc(NCCCC)nc32)cc1)OC(=O)CCCCCCCCCCCCCCC (mixture of isomers) [CL401, (R)-3-(2-amino-3-(4-((6-amino-2-(butylamino)-8-hydroxy-9H-purin-9-yl)methyl)phenylamino)-3-oxopropylthio)propane-1,2-diyl dipalmitate]",mice still alive (survival),"B16-F1 cells; by day 51 following the tumor cell graft, FIG. 6B",60%
same,tumor growth,"B16-F1 cells; compared to vehicle control mice, FIG. 6A",significantly reduced
same,ability to activate TLR7 receptors (human TLR7),human TLR7,activate TLR7 receptors
